{"source": "patent US20260373164A1", "about": "“4(RS)-4-F4-NEUROPROSTANE DERIVATIVES (4-F4T-NEUROP) AND THEIR USE IN TREATING VENTILATOR INDUCED DIAPHRAGMATIC DYSFUNCTION AND OTHER DISEASES” (INSTITUT NATIONAL DE LA SANTÉ ET DE LA RECHERCHE MÉDICALE, priority 2022, published 2026)", "system": "prostanoid receptors", "assay": "In vitro binding assay on prostanoid receptors (agonist or antagonist effect)", "settings": "effects higher than 50% considered significant", "from_the_text": "Prostaglandin (or prostanoid) receptors represent a family of cell surface membrane receptors known to bind and respond principally to metabolites of the polyunsaturated fatty acid (PUFA), arachidonic acid. As some of them are known to modulate cAMP production or intracellular calcium concentration, and based on the chemical structure of neuroprostanes (i.e DHA derivatives), the inventors performed an in vitro binding assay to specifically evaluate the potential agonist or antagonist effect of VB558 on established prostanoid receptors. Results showing an inhibition (or stimulation for assays run in basal conditions) higher than 50% are considered to represent significant effects of the test compounds.", "data": [{"molecule": "CC/C=C\\C[C@@H]1[C@H](/C=C/C(O)CCC(=O)O)[C@@H](O)C[C@H]1O", "note": "(mixture of isomers) [VB558, (E)-6-((1S,2R,3R,5S)-3,5-dihydroxy-2-((Z)-pent-2-en-1-yl)cyclopentyl)-4-hydroxyhex-5-enoic Acid]", "values": [{"measurement": "significant effect (inhibition or stimulation higher than 50%) at prostanoid receptors", "value": "not observed at any of the receptors studied"}]}]}
